Laboratory results published in patent publication US6838592B1, “Methods for the identification of compounds for the treatment of alzheimer's disease” (Nathan S. Kline Institute for Psychiatric Research, priority 1999, dated 2005).
Entries after “also recorded” stand apart in the source; their conditions may differ. Blank lines part the entries; values can stand above or below the compound they belong to. Non-standard residues stand in square brackets, D forms with d. Residues, ends and D or L forms follow the SMILES beside them. *: point of attachment. Sta = CC(C)C[C@H](N)[C@@H](O)CC(=O)O; Isovaleryl = CC(C)CC(=O)*

What was measured:
[1] = system: lipofuscin-like material in neurons; conditions: chronic inhibition (7+days) by infusion; cited from earlier work
[2] = system: Aβ; test: Total Aβ by ELISA after formic acid extraction in PS1M146L/APPswe transgenic mice infused with protease inhibitor; assay type: in vivo; conditions: infusion from 8 to 12 weeks of age
Experimental: We also performed protease inhibitor infusion experiments in PS1M146L/APPswe transgenic mice. Infusion pumps containing either 2 mg/mL pepstatin or 10 mg/mL leupeptin were implanted into PS1M146L/APPswe transgenic mice at 8 weeks of age. Animals were sacrificed at 12 weeks of age, and total Aβ levels were determined by ELISA following formic acid extraction (FIG. 10A). […] Leupeptin treatment, on the other hand, increased total Aβ by 1.8 times when compared to untreated mice. We have additionally measured the activity of Cat D in the brains of untreated, pepstatin-treated, or leupeptin-treated mice (FIG. 10B).
The Aβ sandwich ELISA is generally known to those skilled in the art, with both Aβ ELISA kits (Biosource International, Camavillo, Calif.) and appropriate antibodies (e.g., 4G8, GE10; Seneteck, PLC, Napa, Calif.) available commercially. For the Aβ sandwich ELISA, Nunc-Immuno Plates (Nunc A/S Roskilde, Denmark) were coated overnight at […] using antibodies specific for Aβ40 or Aβ42 in 100 mM bicarbonate buffer, pH 9.6. […] Aβ was detected by incubating for 4 hours at room temperature with an HPR-conjugated anti-Aβ antibody in 20 mM Na phosphate, 2 mM EDTA, 400 mM NaCl, 1.0% BSA. ELISA plates were developed using a color reaction (ABTS Peroxidase Substrate System, Kirkegaard & Perry, Gaithersburg, Md.) and the OD450 read.

[3] = system: tau; test: Western blot analysis of tau in brain of leupeptin-infused mice; assay type: in vivo
Experimental: (§1) Several studies have recently raised the possibility that abnormal forms of tau is metabolized in lysosomes. […] There are numerous assays for tau known in the art. For example, the processing of tau by immunocytochemistry and Western blot analysis is performed using an antibody that recognizes both phosphorylated and non-phosphorylated forms (Adamec et al., Brain Res. 757:93-101, 1997). Abnormal tau conformation and hyperphosphorylated tau is examined using suitable monoclonal antibodies. (e.g., MC1 (Jicha et al., J. Neurosci. Res. 48:128-132) and AT8 (Innogenetics, Gent, Belgium)). EM analysis can be performed to characterize cytoskeletal changes in neurons (Nixon, Bioessays 20:798-807, 1998). Alternatively, the magnitude of neurodegeneration in the mice can be determined by Nissl stain.

[4] = system: lipofuscin; test: Lipofuscin autofluorescence in fixed brain tissue after intraventricular leupeptin infusion; assay type: in vivo, mice; conditions: 5 mg/mL leupeptin, four weeks, vs vehicle (20 mM HEPES)
[5] = molecular target: T1, Cat D (Mus musculus, UniProt P18242); test: Cat D activity in brains of PS1M146L/APPswe transgenic mice infused with protease inhibitor; assay type: in vivo; conditions: 2 mg/mL pepstatin or 10 mg/mL leupeptin, vs untreated
T1 construct: from tissue; host or cells: mouse brain (sections and hemi-brain homogenates)
Experimental: To administer the candidate compounds in the presence or absence of inhibitor(s), eight week old mice are anesthetized with pentobarbital (40-50 mg/kg i.p.) and placed in a stereotaxic apparatus with mouse adapter (David Kopf Instruments, Tujunga, Calif.). After sacrifice, placement of the probe into the lateral ventricle is confirmed and one hemi-brain immersion-fixed and the other hemi-brain homogenized for protease assays. We determine the efficacy of the candidate compound by assaying the activity of proteases in brain homogenates (e.g., Cat B, Cat L, Cat D, and trypsin (Brunk et al., Free Radic. Biol. Med. 19:813-822, 1995; Marotta and Nixon, J. Neurochem. 43:507-516, 1984; Koshikawa et al., Am. J. Pathol. 153:937-944, 1998); see, for example, Cat D shown in FIG. 11F). […] Lipofuscin granules are defined at the EM level as having a single layer of membrane and a bipartite structure consisting of electron lucent lipoid material and electron dense material (Cataldo and Nixon, Ann. N.Y. Acad. Sci. 679: 87-109, 1993).
We also performed protease inhibitor infusion experiments in PS1M146L/APPswe transgenic mice. […] Animals were sacrificed at 12 weeks of age, and total Aβ levels were determined by ELISA following formic acid extraction (FIG. 10A). […] We have additionally measured the activity of Cat D in the brains of untreated, pepstatin-treated, or leupeptin-treated mice (FIG. 10B).

[6] = system: cortical mantle; test: Nissl staining and cortical mantle thickness in PS1M146L/APPswe transgenic and non-transgenic mice infused with leupeptin; assay type: in vivo
Experimental: as §1
As a second example of the usefulness of inducing lysosomal system dysfunction by protease inhibitor infusion, we treated PS1M146L/APPswe transgenic mice, an established model of AD-like pathology (Duff et al., Nature 383:710-713, 1996). Infusion pumps containing 5 mg/mL leupeptin were implanted into PS1M146L/APPswe transgenic mice at 1 year of age. Animals were sacrificed 4 weeks later.
We confirmed this observation by measuring the thickness of the cortical mantle in these mice (FIG. 15). […] One current limitation of the existing mouse models of AD is their failure to show substantial neuronal atrophy and/or neuronal cell loss, key features of the disease in humans.

T1 sequence (P18242 65-410): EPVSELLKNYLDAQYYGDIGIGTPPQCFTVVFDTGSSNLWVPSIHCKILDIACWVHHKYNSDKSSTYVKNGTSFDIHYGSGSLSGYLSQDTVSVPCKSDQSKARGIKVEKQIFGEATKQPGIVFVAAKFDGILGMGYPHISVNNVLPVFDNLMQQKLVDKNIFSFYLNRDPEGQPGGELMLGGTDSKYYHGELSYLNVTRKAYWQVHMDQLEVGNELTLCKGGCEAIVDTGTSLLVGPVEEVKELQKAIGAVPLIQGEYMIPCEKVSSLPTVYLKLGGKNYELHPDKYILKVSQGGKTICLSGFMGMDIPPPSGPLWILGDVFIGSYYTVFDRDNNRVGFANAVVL

Compound: CCN(CC)CCCC(C)Nc1ccnc2cc(Cl)ccc12 (stereo not drawn) [chloroquine]
accumulation of lipofuscin-like material in neurons [1]: results in accumulation of lipofuscin-like material in neurons

Compound: CC(=O)N[C@@H](CC(C)C)C(=O)N[C@@H](CC(C)C)C(=O)N[C@H](C=O)CCCNC(=N)N [leupeptin]
total Aβ increase compared to untreated mice ([2]; 10 mg/mL leupeptin): 1.8 times | lower molecular weight forms of tau (Mr~30-34 kDa) by Western blot [3]: increase in the lower molecular weight forms of tau | lipofuscin autofluorescence [4]: increase in lipofuscin autofluorescence; also recorded: lipotuscin autofluorescence in sections of leupeptin-treated but not vehicle-treated brains | activity of Cat D in the brain [5]: increased Cat D activity | accumulation of lipofuscin-like material in neurons [1]: results in accumulation of lipofuscin-like material in neurons | reduction of thickness of the cortex ([6]; PS1M146L/APPswe mouse, 5 mg/mL leupeptin, 4 weeks): over 20% | Nissl staining of cortex ([6]; PSM146L/APPswe mouse, 5 mg/mL leupeptin, 4 weeks, vs non-transgenic littermate also infused with leupeptin): substantial cortical neuronal hypotrophy, chromatolysis and possibly loss of neurons | thickness of the cortical mantle ([6]; non-transgenic mouse, leupeptin vs vehicle): small decrease

activity of Cat D in the brain [5]: reduced activity of Cat D
Compound: CC(C)CC(=O)N[C@H](C(=O)N[C@H](C(=O)N[C@@H](CC(C)C)[C@@H](O)CC(=O)N[C@@H](C)C(=O)N[C@@H](CC(C)C)[C@@H](O)CC(=O)O)C(C)C)C(C)C [pepstatin] (Isovaleryl-VV[Sta]A[Sta]-OH)
total Aβ level relative to untreated mice ([2]; 2 mg/mL pepstatin): reduced to half the level

Compound: aprotinin
accumulation of lipofuscin-like material in neurons [1]: does not
